From patent US5677281A, “Use of peptide derivatives for the preparation of medicaments inhibiting endopeptidases 24.15 and 24.16” (Commissariat a l'Energie Atomique, priority 1992, dated 1997)
“Also recorded” adds a separate entry of the source. Read-outs that look alike come from different tables or passages of the source. Residues, ends and D or L forms follow the SMILES beside them.

Key:
endopeptidase 24.15 [1] = biological target: endopeptidase 24.15 (Homo sapiens, UniProt P52888); conditions: cited from earlier work
Chain of endopeptidase 24.15 (Homo sapiens, UniProt P52888) (P52888 whole entry, species assumed): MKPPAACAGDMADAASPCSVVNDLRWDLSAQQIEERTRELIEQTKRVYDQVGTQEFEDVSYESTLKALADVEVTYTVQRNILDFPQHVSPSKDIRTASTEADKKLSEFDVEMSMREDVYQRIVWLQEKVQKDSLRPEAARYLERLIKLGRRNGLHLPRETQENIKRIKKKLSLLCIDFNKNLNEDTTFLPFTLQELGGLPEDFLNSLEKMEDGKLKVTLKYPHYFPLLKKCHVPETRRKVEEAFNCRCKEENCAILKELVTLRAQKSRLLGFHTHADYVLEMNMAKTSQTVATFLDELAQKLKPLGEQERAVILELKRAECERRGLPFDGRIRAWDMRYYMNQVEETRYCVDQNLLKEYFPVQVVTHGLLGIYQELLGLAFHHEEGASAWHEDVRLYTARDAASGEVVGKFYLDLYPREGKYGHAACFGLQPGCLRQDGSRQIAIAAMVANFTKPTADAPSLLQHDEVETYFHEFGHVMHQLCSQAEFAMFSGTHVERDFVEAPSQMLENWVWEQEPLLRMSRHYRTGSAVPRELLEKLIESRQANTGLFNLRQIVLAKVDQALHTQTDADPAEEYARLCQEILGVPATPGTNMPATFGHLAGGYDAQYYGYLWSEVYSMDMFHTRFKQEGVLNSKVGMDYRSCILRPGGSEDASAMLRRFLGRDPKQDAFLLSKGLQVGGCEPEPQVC

endopeptidase 24.16 [2] = biological target: endopeptidase 24.16 (Homo sapiens, UniProt Q9BYT8); conditions: Dauch et al, cited from earlier work
Chain of endopeptidase 24.16 (Homo sapiens, UniProt Q9BYT8) (Q9BYT8 38-704): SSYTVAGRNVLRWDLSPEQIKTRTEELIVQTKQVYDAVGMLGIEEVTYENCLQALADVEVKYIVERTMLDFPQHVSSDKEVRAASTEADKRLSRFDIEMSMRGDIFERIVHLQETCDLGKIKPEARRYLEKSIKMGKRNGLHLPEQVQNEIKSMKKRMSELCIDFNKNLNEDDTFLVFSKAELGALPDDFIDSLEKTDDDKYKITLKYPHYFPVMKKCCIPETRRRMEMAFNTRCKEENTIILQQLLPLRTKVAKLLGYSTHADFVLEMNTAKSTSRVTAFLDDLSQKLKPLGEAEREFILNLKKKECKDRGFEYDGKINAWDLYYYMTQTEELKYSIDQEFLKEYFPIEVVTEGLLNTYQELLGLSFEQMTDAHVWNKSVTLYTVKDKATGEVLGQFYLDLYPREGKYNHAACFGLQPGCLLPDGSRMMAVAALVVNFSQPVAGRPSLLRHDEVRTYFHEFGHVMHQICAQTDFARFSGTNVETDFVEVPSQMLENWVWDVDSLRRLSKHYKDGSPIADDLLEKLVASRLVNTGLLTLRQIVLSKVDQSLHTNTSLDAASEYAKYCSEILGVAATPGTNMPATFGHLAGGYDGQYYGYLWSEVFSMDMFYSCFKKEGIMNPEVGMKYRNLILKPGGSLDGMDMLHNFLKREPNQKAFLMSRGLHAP

endopeptidase 24.16 [3] = biological target: T1, endopeptidase 24.16 (Rattus norvegicus, UniProt P42676); experiment: Inhibition of endopeptidase 24.16, fluorimetry with substrate Mcc-Pro-Leu-Gly-Pro-DLys-Dnp (Example 8); format: biochemical; conditions: 1 h, 37° C., pH 7.5, read-out: inhibition constant Ki
T1 sequence (P42676 38-704): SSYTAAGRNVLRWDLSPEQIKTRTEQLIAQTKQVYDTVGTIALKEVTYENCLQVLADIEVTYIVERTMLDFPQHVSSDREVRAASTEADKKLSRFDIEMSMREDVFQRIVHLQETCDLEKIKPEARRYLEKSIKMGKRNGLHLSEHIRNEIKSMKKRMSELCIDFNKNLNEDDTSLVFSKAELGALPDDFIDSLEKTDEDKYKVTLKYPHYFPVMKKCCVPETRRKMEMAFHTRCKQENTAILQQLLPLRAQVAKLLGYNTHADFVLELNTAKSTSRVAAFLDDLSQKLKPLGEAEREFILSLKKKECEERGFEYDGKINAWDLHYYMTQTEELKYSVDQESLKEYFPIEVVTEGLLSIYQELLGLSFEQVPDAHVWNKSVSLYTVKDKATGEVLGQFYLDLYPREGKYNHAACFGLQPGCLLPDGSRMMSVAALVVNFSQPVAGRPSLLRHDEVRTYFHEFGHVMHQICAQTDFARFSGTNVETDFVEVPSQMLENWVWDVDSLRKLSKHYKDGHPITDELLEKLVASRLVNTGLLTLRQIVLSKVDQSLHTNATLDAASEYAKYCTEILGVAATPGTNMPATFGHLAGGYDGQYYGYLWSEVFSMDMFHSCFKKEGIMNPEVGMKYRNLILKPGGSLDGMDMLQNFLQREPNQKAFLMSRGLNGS
Method: After incubating for 1 h, the solutions are analyzed by fluorimetry, as described by Dauch et al, Biochem. J., 280, pp.421-426, 1991a.

endopeptidase 24.16 [4] = biological target: T1, endopeptidase 24.16; experiment: Inhibition of endopeptidase 24.16, neurotensin as substrate, HPLC (Example 9); format: biochemical
Method: (§1) After incubation, it is interrupted by acidification and the solution analyzed by high performance liquid chromatography (HPLC) using an elution system constituted by a linear gradient of 42 min of 0.1% trifluoroacetic acid and 0.05% triethyl amine in acetonitrile, ranging between 9/1 and 3/1, as described by Checler et al, Biochimie 70, pp.75-82, 1988.
The results obtained are given in FIGS. 2 to 7, which show chromatograms obtained by measuring the optical density at 230 nm as a function of time (min).

endopeptidase 24.11 = experiment: Effect on endopeptidase 24.11, hydrolysis of neurotensin (Example 15); format: biochemical
Method: The hydrolysis of 2 nM of neurotensin is followed by 9 μg of endopeptidase 24.11 under the conditions described in example 3.

endopeptidase 24.16 [5] = biological target: T1, endopeptidase 24.16; experiment: Inhibition of endopeptidase 24.16, neurotensin, Tris-HCl 25 mM pH 7, 25° C. (Example 16); format: biochemical; conditions: read-out: Endopeptidases 24.16 Ki
Method: as §1
As in example 9, this example studies the inhibiting effect of the compounds of examples 1 to 7 on endopeptidase 24.16 using neurotensin as the substrate and operating in the same way, except that use is made of a Tris-HCl, 25 mM, pH 7 buffer and a temperature of 25° C.

endopeptidase 24.15 [6] = biological target: T2, endopeptidase 24.15 (Rattus norvegicus, UniProt P24155); experiment: Inhibition of endopeptidase 24.15, neurotensin, Tris-HCl 25 mM pH 7, 25° C. (Example 17); format: biochemical; conditions: read-out: Endopeptidases 24.15 Ki
T2 sequence (P24155 whole entry): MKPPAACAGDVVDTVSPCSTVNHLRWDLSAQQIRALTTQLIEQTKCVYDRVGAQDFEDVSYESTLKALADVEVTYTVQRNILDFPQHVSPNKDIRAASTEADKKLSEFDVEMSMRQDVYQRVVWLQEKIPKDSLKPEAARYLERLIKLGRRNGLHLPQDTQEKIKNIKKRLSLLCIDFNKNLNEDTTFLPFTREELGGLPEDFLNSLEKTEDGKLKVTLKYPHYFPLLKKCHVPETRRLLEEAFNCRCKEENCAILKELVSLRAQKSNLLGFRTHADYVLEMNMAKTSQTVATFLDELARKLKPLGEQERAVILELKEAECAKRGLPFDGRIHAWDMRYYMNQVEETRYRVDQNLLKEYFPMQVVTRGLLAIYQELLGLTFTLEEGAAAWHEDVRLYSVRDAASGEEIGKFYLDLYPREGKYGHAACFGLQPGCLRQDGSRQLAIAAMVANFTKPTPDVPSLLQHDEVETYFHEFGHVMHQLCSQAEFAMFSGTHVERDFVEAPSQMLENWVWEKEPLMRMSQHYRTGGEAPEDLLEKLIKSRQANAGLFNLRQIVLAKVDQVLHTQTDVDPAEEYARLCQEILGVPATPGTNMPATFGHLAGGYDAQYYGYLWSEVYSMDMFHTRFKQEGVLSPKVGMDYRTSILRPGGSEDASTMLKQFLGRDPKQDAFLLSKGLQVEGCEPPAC
Method: (§2) After incubating for 42 min, acidification and analysis takes place of the liquid phase by HPLC in reverse phase using linear gradients of the trifluoroacetic acid, triethyl amine and acetonitrile system, as in example 3.
As in example 11, this example studies the inhibiting effect of the compounds of examples 1 to 7 on endopeptidase 24.15 using neurotensin as the substrate and working under the same conditions, except that use is made of a Tris-HCl 25 mM, pH 7 buffer and a temperature of 25° C.

endopeptidase 24.15 [7] = biological target: T2, endopeptidase 24.15; experiment: Inhibition of endopeptidase 24.15, neurotensin as substrate, HPLC (Example 11); format: biochemical; conditions: 37° C.
Method: This example uses the same operating procedure as in example 10, but using neurotensin as the endopeptidase 24.15 substrate.
as §2

leucine aminopeptidase = experiment: Effect on leucine aminopeptidase, substrate Leu-7AMC, HPLC (Example 13); format: biochemical; conditions: 1 μmole/l of inhibitor, 15 min, 37° C.
Method: After incubating for 15 min, the reaction medium is analyzed by HPLC.

[8] = biological target: angiotensin conversion enzyme (Homo sapiens, UniProt P12821); experiment: Effect on angiotensin conversion enzyme, substrate Hippuryl-His-Leu, HPLC (Example 14); format: biochemical; conditions: 1 μmole/l of inhibitor, 15 min, 37° C.
Chain of angiotensin conversion enzyme (P12821 30-1306): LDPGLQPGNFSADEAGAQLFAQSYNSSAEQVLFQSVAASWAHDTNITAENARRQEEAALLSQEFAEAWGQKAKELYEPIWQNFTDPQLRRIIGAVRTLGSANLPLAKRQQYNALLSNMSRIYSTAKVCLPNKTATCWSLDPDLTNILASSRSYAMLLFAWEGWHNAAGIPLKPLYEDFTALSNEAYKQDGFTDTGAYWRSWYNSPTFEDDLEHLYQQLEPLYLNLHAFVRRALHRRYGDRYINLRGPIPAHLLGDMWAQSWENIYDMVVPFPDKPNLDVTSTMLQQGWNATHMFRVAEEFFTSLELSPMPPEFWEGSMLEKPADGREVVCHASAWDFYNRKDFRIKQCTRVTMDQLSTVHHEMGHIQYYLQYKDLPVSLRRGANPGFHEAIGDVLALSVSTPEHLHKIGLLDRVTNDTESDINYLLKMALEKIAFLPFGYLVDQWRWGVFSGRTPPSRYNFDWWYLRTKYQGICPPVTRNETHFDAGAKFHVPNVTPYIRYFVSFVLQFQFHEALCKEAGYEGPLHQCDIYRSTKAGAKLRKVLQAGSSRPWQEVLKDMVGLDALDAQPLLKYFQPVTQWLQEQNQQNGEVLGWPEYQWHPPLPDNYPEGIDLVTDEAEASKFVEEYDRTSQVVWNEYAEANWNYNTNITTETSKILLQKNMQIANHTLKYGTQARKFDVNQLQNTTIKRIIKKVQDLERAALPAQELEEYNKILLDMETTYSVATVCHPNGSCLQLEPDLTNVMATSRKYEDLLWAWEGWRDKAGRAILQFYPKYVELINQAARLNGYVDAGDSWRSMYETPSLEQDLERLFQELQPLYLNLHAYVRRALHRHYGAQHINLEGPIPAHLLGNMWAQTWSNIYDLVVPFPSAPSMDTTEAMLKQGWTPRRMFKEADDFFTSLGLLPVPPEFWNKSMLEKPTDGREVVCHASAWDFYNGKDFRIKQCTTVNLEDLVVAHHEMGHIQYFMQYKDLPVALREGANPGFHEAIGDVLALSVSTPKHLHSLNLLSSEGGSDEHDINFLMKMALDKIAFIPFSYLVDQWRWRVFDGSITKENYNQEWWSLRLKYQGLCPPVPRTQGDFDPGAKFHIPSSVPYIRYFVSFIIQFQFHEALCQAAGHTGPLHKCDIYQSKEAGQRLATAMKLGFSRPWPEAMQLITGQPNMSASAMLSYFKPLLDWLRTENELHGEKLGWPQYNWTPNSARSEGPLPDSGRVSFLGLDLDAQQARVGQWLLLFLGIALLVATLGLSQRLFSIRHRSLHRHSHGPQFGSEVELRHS

carboxypeptidase A = biological target: T3, carboxypeptidase A (Bos taurus, UniProt P00730); experiment: Effect on carboxypeptidase A, substrate Hippuryl-Phe, HPLC (Example 12); format: biochemical; conditions: 1 μmole/l of inhibitor, 15 min, 37° C.
T3 sequence (P00730 111-419): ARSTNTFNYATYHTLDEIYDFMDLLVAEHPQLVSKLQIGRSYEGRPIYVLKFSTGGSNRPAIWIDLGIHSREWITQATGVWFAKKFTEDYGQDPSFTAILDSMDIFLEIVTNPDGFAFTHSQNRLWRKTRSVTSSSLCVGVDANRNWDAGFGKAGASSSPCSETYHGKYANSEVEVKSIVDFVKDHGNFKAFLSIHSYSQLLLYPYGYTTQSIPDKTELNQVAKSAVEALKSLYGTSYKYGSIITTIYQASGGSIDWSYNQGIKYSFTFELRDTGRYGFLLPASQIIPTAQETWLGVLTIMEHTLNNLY
Method: After 15 min incubation, the solution is analyzed by HPLC.

endopeptidase 24.15 [9] = biological target: T2, endopeptidase 24.15; experiment: Inhibition of endopeptidase 24.15, substrate Bz-Gly-Ala-Ala-Phe-pAB, HPLC (Example 10); format: biochemical; conditions: 37° C.
Method: Following incubation, acidification and HPLC analysis on an inverse phase take place using a linear gradient elution system of 63 min of 0.1% trifluoroacetic acid and 0.05% triethyl amine in acetonitrile between 9/1 (v/v) and 5.5/4.5 (v/v), as described by Checler et al in Biochimie 70, pp.75-82, 1988.

C[C@H](NC(=O)[C@H](C)NC(CCc1ccccc1)C(=O)O)C(=O)N[C@@H](Cc1ccc(O)cc1)C(=O)Nc1ccc(C(=O)O)cc1 (stereo partly drawn) [CPP-Ala-Ala-Tyr-pAB]
Ki (endopeptidase 24.15 [1]; Orlowski et al, Biochemistry 27, 1988, read-out: inhibition constant, endopeptidase 24.15): 16 nM | Ki (endopeptidase 24.16 [2]; Biochem. J. 280, 1991, read-out: inhibition constant, endopeptidase 24.16): 1000 nM

CC[C@H](C)[C@H](NC(=O)[C@@H]1CCCN1)C(=O)O [Pro-Ile] (H-Pro-Ile-OH)
inhibiting action on endopeptidase 24.15 (endopeptidase 24.15 [1]; at a concentration as high as 5 mN): no inhibiting action | Ki (endopeptidase 24.16 [2]; Eur. J. Biochem. 202, 1991b, read-out: Ki inhibition of endopeptidase 24.16): 90000 nM

phosphodiepryl O3
Ki (endopeptidase 24.16 [3]): 0.3 nM | effectiveness compared with the Ki of the known inhibitor Pro-Ile (endopeptidase 24.16 [4]; Ki 0.9 nM versus Pro-Ile 90 μM): 100,000 times | Ki (endopeptidase 24.16 [4]; substrate neurotensin, 37° C., pH 7.5): 0.9 nM | inhibition of endopeptidase 24.11 (endopeptidase 24.11): no inhibition; also recorded: no effect | Ki (endopeptidase 24.16 [5]): 0.44 nM | Ki (endopeptidase 24.15 [6]): 1.6 nM | IC50 (endopeptidase 24.15 [7]): 100 nM | Ki (endopeptidase 24.15 [7]; read-out: inhibition constant Ki): 7.5 nM | leucine aminopeptidase inhibition (leucine aminopeptidase): no inhibition; also recorded: no effect | inhibition of the angiotensin conversion enzyme [8]: no inhibition; also recorded: no effect | carboxypeptidase A inhibition (carboxypeptidase A): no carboxypeptidase A inhibition; also recorded: no effect | IC50 (endopeptidase 24.15 [9]): 5 nM | Ki (endopeptidase 24.15 [9]): 5 nM
